# In patent US20240226026A1, “BRANCHED TAIL LIPID COMPOUNDS AND COMPOSITIONS FOR INTRACELLULAR DELIVERY OF THERAPEUTIC AGENTS” (ModernaTX, Inc., priority 2021, published 2024):
# Tests used:
# CD-1 mice = experiment: Expression of hEPO induced by LNPs (mRNA encoding hEPO) administered to mice; format: in vivo; settings: Table 4a, serum, 6 h after intravenous injection; for Avg. hEPO Concentration (mIU/mL)* ± Avg. SD: ELLA Simple Plex Assay
# Method in brief: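 LNPs of DSPC, cholesterol, PEG lipid and test ionizable lipid carrying hEPO mRNA were given intravenously. Serum hEPO was measured 6 h post-injection by ELLA Simple Plex immunoassay calibrated to the 2nd IRP WHO standard.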
# [1] = Lipid nanoparticle surface hydrophobicity by Generalized Polarization by Laurdan (N-GP); format: physicochemical; settings: for LNP surface hydrophobicity (N-GP*): Table 2b, nanoparticles comprising the lipid
# Method in brief: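 Laurdan, a fluorescent aminonaphthalene ketone lipid, is post-inserted into the nanoparticle surface. Its fluorescence spectrum is collected and converted to a normalized Generalized Polarization (N-GP) value as the measure of surface hydrophobicity.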
# [2] = Particle size (diameter) and polydispersity index of lipid nanoparticles; format: physicochemical; settings: nanoparticles comprising the lipid
# Method in brief: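 Size and PDI measured by dynamic light scattering (Zetasizer Nano ZS) in 1×PBS. LNPs comprised DSPC, cholesterol, PEG lipid and ionizable lipid, some with rhodamine-DOPE.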
# [3] = Apparent pKa of lipid nanoparticles; format: physicochemical; settings: for Apparent pKa 95% CI: Table 2b, 95% confidence interval
# [4] = Encapsulation efficiency (% EE) of lipid nanoparticles; format: physicochemical; settings: nanoparticles comprising the lipid
# Method in brief: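 RNA-loaded LNPs were diluted to ~5 μg/mL in TE buffer (pH 7.5) and incubated 15 min at 37 °C with buffer or 2% Triton X-100 solution, then RiboGreen fluorescence was read (ex ~480/em ~520 nm). After blank subtraction, free RNA % = intact-sample fluorescence ÷ Triton-disrupted fluorescence.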
LNP surface hydrophobicity (N-GP*) [1],Diameter (nm) ([2]; Table 2b),PDI ([2]; Table 2b),Diameter (nm) ([2]; Table 3),PDI ([2]; Table 3),Apparent pKa 95% CI [3],% EE ([4]; Table 2b) [%],% EE ([4]; Table 3) [%],"Lipid nanoparticle surface hydrophobicity (N-GP*) ([1]; Table 2a, Laurdan, higher N-GP indicates a less polar surface)",PDI ([2]; Table 2a),"Diameter (nm) ([2]; Table 2a, DSPC, cholesterol, PEG lipid)","Apparent pKa ([3]; Table 2a, nanoparticles comprising the lipid)",% EE ([4]; Table 2a) [%],Compound,Avg. hEPO Concentration (mIU/mL)* ± Avg. SD (CD-1 mice) [mIU/mL],Avg. hEPO Concentration (mIU/mL) ± Avg. SD (CD-1 mice) [mIU/mL]
0.98,163.9,0.22,89.3,0.154,6.865 to 6.928,26.4,36.1,,,,,,CCCCCC(CCCCC)CCOC(=O)CCCCCCCN(CCCCCCCC(=O)OCCC(CCCCC)CCCCC)CCCNC(=O)C1(C)CC1 [Compound 25],5.13E+06 ± 9.33E+04,
,,,94.5,0.134,,,95.0,1.09,0.113,84.8,6.645,86.3,CCCCCC(CCCCC)CCOC(=O)CCCCCCCN(CCCCCCCC(=O)OCCC(CCCCC)CCCCC)CCCNS(=O)(=O)CC [Compound 26],,1.42E+07 ± 3.66E+05
1.00,87.8,0.178,66.9,0.148,6.614 to 6.687,78.2,93.5,,,,,,CCCCCC(CCCCC)CCOC(=O)CCCCCCCN(CCCCCCCC(=O)OCCC(CCCCC)CCCCC)CCCNS(=O)(=O)Cc1ccon1 [Compound 27],2.12E+06 ± 7.18E+04,
0.99,84.3,0.202,90.3,0.161,6.545 to 6.670,99.9,99.5,,,,,,CCCCCC(CCCCC)CCOC(=O)CCCCCCCN(CCCCCCCC(=O)OCCC(CCCCC)CCCCC)CCCNc1ncccc1N [Compound 28],6.30E+05 ± 1.83E+04,
